According to patent publication US20080274892A1, “Novel Haloalkylsulfonanilide Derivative, Herbicide, and Method of Use Thereof” (priority 2005, published 2008):

Experiments:
[1] = tested on: bulrush; test: Test Example 2: herbicidal efficacy on rice paddy weeds post-emergence; format: in vivo, Scirpus juncoides; settings: post-emergence, one leaf stage, 21 days after treatment
[2] = tested on: false pimpernel; test: Test Example 1: herbicidal efficacy on rice paddy weeds pre-emergence; format: in vivo, Lindernia pyxidaria; settings: 21 days
[3] = tested on: bulrush; test: as above; format: in vivo, Scirpus juncoides; settings: 21 days
[4] = tested on: barnyard glass; test: Test Example 2: herbicidal efficacy on rice paddy weeds post-emergence; format: in vivo, Echinochloa crus-galli; settings: dosage 1000 g/ha; post-emergence, one leaf stage; 21 days after treatment
Outline: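 Plastic pots of 75 cm^2 were filled with clay loam soil and sown with barnyard glass and bulrush seeds, then topped with 75 cm^3 soil containing false pimpernel seeds. The pots were flooded to 5 cm water depth and held in a hot house. Twenty-one days after treatment, herbicidal efficacy was graded against an untreated control.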

[5] = tested on: bulrush; test: Test Example 4: low dosage test for rice paddy weeds; format: in vivo, Scirpus juncoides; settings: 300 g/ha as an active ingredient; plants treated at the one leaf stage; 21 days after treatment; vs untreated control
Source text: (§1) The standard of judgment for herbicidal efficacy (degree of growth inhibition) and phytotoxicity 4 . . . 90%-100% of herbicidal efficacy or phytotoxicity 3 . . . 70%-89% of herbicidal efficacy or phytotoxicity 2 . . . 40%-69% of herbicidal efficacy or phytotoxicity 1 . . . 1%-39% of herbicidal efficacy or phytotoxicity 0 . . . 0% of herbicidal efficacy or phytotoxicity
A 75 cm^2 plastic pot was filled with soil (clay loam) and planted seeds of bulrush which is a rice paddy weed. After covering the top with 75 cm^3 soil, the pot was filled with water so that the soil submerged under 5 cm depth of water and kept in a hot house. The test plants, at the one leaf stage, were treated with the solution of a formulation containing the compound of the present invention as an active ingredient at the predetermined effective dosage (300 g/ha as an active ingredient). The pots were kept in a hot house for 21 days after the treatment and the herbicidal efficacy was investigated and evaluated according to the standard in Test Example 1 by comparing with the untreated control. Further, as a comparative compound, the compound No. 6-28 described in the JP-A-2004-107322 was used.

[6] = tested on: paddy rice plant (cultivar: Nihonbare); test: Test Example 3: phytotoxicity test for transplanted paddy rice plant; format: in vivo; settings: transplanted rice, 21 days after treatment
Outline: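 Clay loam soil was placed in a 75 cm^2 plastic pot and flooded to a water depth of 5 cm. Two Nihonbare paddy rice plants at the two-leaf stage were transplanted 1 cm deep and grown in a hot house. After treatment, pots stayed in the hot house for 21 days, and phytotoxicity was then graded against an untreated control.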

[7] = tested on: transplanted paddy rice plant and Bulrush; test: Test Example 5: selectivity between transplanted paddy rice plant and weeds; format: in vivo; settings: (highest dosage with no phytotoxicity to paddy rice)/(lowest dosage with effective level 4 on Bulrush); rice 3000-100 g/ha, Bulrush 300-10 g/ha; 21 days
Description: as §1
Phytotoxicity test for transplanted paddy rice plants was carried out, as in Test Example 3, by the treatment of 3000, 1000, 300 and 100 (g/ha of the active ingredient) dosage, and herbicidal test to weed post-emergence was carried out to Burlush seeded as in Test Example 2 treating at 300, 100, 30 and 10 (g/ha) dosage. The pots were kept in a hot house for 21 days after the treatment, and the phytotoxicity and the herbicidal efficacy was investigated and evaluated according to the standard in Test Example 1 by comparing with the untreated control. […] Further, as a comparative compound, the compound No. 6-28 described in the JP-A-2004-107322 was used.

[8] = tested on: false pimpernel; test: Test Example 2: herbicidal efficacy on rice paddy weeds post-emergence; format: in vivo, Lindernia pyxidaria; settings: post-emergence, one leaf stage, 21 days after treatment
[9] = dosage 1000 g/ha, treated 5 days after transplantation

SMILES | Bulrush post (herbicidal efficacy grade) ([1]; dosage 1000 g/ha) | False pimpernel pre (herbicidal efficacy grade) ([2]; dosage 1000 g/ha) | Bulrush pre (herbicidal efficacy grade) ([3]; dosage 1000 g/ha) | Burnyard grass post (herbicidal efficacy grade) [4] | Herbicide effect to Bulrush [5] | Phytotoxicity to paddy rice [6, 9] | Selective Index [7] | False pimpernel post (herbicidal efficacy grade) ([8]; dosage 1000 g/ha) | Bulrush post (herbicidal efficacy grade) ([1]; dosage 300 g/ha) | False pimpernel pre (herbicidal efficacy grade) ([2]; dosage 300 g/ha) | Bulrush pre (herbicidal efficacy grade) ([3]; dosage 300 g/ha) | Phytotoxicity to paddy rice ([6]; dosage 300 g/ha) | False pimpernel post (herbicidal efficacy grade) ([8]; dosage 300 g/ha)
CC(C)OC(=O)N(c1ccccc1CN1CC(C)(C)OC1=O)S(=O)(=O)C(F)(F)F [1-76] | 4 (90%-100% of herbicidal efficacy or phytotoxicity) | 4 (90%-100% of herbicidal efficacy or phytotoxicity) | 4 (90%-100% of herbicidal efficacy or phytotoxicity) | 4 (90%-100% of herbicidal efficacy or phytotoxicity) | 4 (90%-100% of herbicidal efficacy or phytotoxicity) | 2 (40%-69% of herbicidal efficacy or phytotoxicity) | 30 | 4 (90%-100% of herbicidal efficacy or phytotoxicity) | – | – | – | – | –
CCCC1(CC)CN(Cc2ccccc2N(C(=O)OC)S(=O)(=O)C(F)(F)F)C(=O)O1 (stereo not shown) [1-144] | 4 (90%-100% of herbicidal efficacy or phytotoxicity) | 4 (90%-100% of herbicidal efficacy or phytotoxicity) | 4 (90%-100% of herbicidal efficacy or phytotoxicity) | 4 (90%-100% of herbicidal efficacy or phytotoxicity) | 4 (90%-100% of herbicidal efficacy or phytotoxicity) | 1 (1%-39% of herbicidal efficacy or phytotoxicity) | 10 | 4 (90%-100% of herbicidal efficacy or phytotoxicity) | – | – | – | – | –
CCC1CN(Cc2ccccc2NS(=O)(=O)C(F)(F)F)C(=O)O1 (stereo not shown) [Compound No. 1-23, 5-ethyl-3-[2-(trifluoromethanesulfonylamino)benzyl]-2-oxazolidinone] | 4 (90%-100% of herbicidal efficacy or phytotoxicity) | 4 (90%-100% of herbicidal efficacy or phytotoxicity) | 4 (90%-100% of herbicidal efficacy or phytotoxicity) | 4 (90%-100% of herbicidal efficacy or phytotoxicity) | 4 (90%-100% of herbicidal efficacy or phytotoxicity) | 1 (1%-39% of herbicidal efficacy or phytotoxicity) | 10 | 4 (90%-100% of herbicidal efficacy or phytotoxicity) | – | – | – | – | –
COCC1(C)CN(Cc2ccccc2N(C(=O)OC)S(=O)(=O)C(F)(F)F)C(=O)O1 (stereo not shown) [1-147] | – | – | – | – | 4 (90%-100% of herbicidal efficacy or phytotoxicity) | – | 10 | – | 4 (90%-100% of herbicidal efficacy or phytotoxicity) | 4 (90%-100% of herbicidal efficacy or phytotoxicity) | 4 (90%-100% of herbicidal efficacy or phytotoxicity) | 1 (1%-39% of herbicidal efficacy or phytotoxicity) | 4 (90%-100% of herbicidal efficacy or phytotoxicity)
COC(=O)N(c1ccccc1CN1CC(C(F)(F)F)OC1=O)S(=O)(=O)C(F)(F)F (stereo not shown) [1-151] | 4 (90%-100% of herbicidal efficacy or phytotoxicity) | 4 (90%-100% of herbicidal efficacy or phytotoxicity) | 4 (90%-100% of herbicidal efficacy or phytotoxicity) | – | 3 (70%-89% of herbicidal efficacy or phytotoxicity) | 1 (1%-39% of herbicidal efficacy or phytotoxicity) | 3 | 4 (90%-100% of herbicidal efficacy or phytotoxicity) | – | – | – | – | –
COC(=O)N(c1ccccc1CN1CC(C2CC2)(C2CC2)OC1=O)S(=O)(=O)C(F)(F)F [1-172] | 4 (90%-100% of herbicidal efficacy or phytotoxicity) | 4 (90%-100% of herbicidal efficacy or phytotoxicity) | 4 (90%-100% of herbicidal efficacy or phytotoxicity) | – | 4 (90%-100% of herbicidal efficacy or phytotoxicity) | 1 (1%-39% of herbicidal efficacy or phytotoxicity) | 10 | 4 (90%-100% of herbicidal efficacy or phytotoxicity) | – | – | – | – | –
O=C1OC(C2CC2)(C2CC2)CN1Cc1ccccc1NS(=O)(=O)C(F)(F)F [1-170] | 4 (90%-100% of herbicidal efficacy or phytotoxicity) | 4 (90%-100% of herbicidal efficacy or phytotoxicity) | 4 (90%-100% of herbicidal efficacy or phytotoxicity) | – | 4 (90%-100% of herbicidal efficacy or phytotoxicity) | 2 (40%-69% of herbicidal efficacy or phytotoxicity) | 10 | 4 (90%-100% of herbicidal efficacy or phytotoxicity) | – | – | – | – | –
COC(=O)N(c1ccccc1CN1CC(C)OC1=O)S(=O)(=O)C(F)(F)F (racemic) [1-54] | 4 (90%-100% of herbicidal efficacy or phytotoxicity) | 4 (90%-100% of herbicidal efficacy or phytotoxicity) | 4 (90%-100% of herbicidal efficacy or phytotoxicity) | 4 (90%-100% of herbicidal efficacy or phytotoxicity) | 4 (90%-100% of herbicidal efficacy or phytotoxicity) | 0 (0% of herbicidal efficacy or phytotoxicity) | 33.3 | – | – | – | – | – | –
CCC1(CC)CN(Cc2ccccc2N(C(=O)OC)S(=O)(=O)C(F)(F)F)C(=O)O1 [1-109] | 4 (90%-100% of herbicidal efficacy or phytotoxicity) | 4 (90%-100% of herbicidal efficacy or phytotoxicity) | 4 (90%-100% of herbicidal efficacy or phytotoxicity) | – | 4 (90%-100% of herbicidal efficacy or phytotoxicity) | 1 (1%-39% of herbicidal efficacy or phytotoxicity) | ≧30 | 4 (90%-100% of herbicidal efficacy or phytotoxicity) | – | – | – | – | –
O=C1OC2(CCC2)CN1Cc1ccccc1NS(=O)(=O)C(F)(F)F [1-87] | – | – | – | – | 3 (70%-89% of herbicidal efficacy or phytotoxicity) | – | 3 | – | 4 (90%-100% of herbicidal efficacy or phytotoxicity) | 4 (90%-100% of herbicidal efficacy or phytotoxicity) | 4 (90%-100% of herbicidal efficacy or phytotoxicity) | 1 (1%-39% of herbicidal efficacy or phytotoxicity) | 4 (90%-100% of herbicidal efficacy or phytotoxicity)
